From patent US12162890B2 (Novartis AG, priority 2015, dated 2024)

target: HEK293 cells with stable expression of the GRIN1 gene and tetracycline-inducible expression of the GRIN2B gene (NMDA receptor, NR2B) (Homo sapiens, UniProt Q13224); assay: Fluo-8 Ca2+ flux assay: reversal of Ro 25-6981-mediated suppression of the Ca2+ response to co-agonist (glutamate/glycine); format: cell-based; conditions: reversal of the Ro 25-6981 suppression of the Ca2+ response to co-agonist (glutamate/glycine); further: test concentration or dose not given here
Sequence (Q13224 27-1484, other chains not shown): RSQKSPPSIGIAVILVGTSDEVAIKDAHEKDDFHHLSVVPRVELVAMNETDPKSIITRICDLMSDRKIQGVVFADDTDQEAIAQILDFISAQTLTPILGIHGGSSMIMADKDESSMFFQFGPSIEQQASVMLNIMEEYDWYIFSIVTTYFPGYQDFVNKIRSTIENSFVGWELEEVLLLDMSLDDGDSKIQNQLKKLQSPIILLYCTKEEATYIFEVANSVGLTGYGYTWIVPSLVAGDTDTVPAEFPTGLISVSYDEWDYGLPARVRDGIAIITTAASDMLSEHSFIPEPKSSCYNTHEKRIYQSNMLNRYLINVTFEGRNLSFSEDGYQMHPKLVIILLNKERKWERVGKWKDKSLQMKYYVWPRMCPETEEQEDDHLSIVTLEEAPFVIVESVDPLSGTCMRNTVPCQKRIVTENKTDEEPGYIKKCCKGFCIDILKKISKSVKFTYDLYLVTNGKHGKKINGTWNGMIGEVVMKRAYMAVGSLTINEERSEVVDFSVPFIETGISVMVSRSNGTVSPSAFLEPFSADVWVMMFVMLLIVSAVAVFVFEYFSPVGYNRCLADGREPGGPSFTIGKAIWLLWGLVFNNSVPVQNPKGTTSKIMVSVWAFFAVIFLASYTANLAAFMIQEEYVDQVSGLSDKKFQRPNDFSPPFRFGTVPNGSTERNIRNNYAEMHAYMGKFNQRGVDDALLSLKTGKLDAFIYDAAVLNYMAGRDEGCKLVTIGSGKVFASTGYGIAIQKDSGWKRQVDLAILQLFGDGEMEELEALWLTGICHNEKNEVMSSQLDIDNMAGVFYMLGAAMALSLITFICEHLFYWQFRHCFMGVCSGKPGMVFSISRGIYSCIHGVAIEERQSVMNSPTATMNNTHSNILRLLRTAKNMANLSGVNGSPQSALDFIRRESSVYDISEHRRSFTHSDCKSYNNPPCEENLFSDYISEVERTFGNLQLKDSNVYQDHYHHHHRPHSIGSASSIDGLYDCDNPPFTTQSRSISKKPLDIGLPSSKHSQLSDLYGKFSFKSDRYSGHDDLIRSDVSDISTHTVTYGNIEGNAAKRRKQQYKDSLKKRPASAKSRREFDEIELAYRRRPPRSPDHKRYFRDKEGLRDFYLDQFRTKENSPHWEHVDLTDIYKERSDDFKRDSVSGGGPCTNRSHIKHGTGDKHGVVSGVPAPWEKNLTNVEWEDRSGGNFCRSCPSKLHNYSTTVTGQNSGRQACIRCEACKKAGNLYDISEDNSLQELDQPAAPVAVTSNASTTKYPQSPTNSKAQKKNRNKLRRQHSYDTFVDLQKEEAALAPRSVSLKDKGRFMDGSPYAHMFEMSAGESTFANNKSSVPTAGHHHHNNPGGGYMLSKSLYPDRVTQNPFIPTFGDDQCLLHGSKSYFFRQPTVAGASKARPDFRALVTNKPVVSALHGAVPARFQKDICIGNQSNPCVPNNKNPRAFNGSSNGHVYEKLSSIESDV

Q: For `O=C(Cn1cnc2cccc(-c3ccc(Cl)cc3)c2c1=O)N1CCCC1C(F)(F)F` (centres unmarked) [Example 297, 5-(4-chlorophenyl)-3-(2-oxo-2-(2-(trifluoromethyl)pyrrolidin-1-yl)ethyl)quinazolin-4(3H)-one], which “Response Recovered (%)” value is on record?
A: 3%

Q: With `O=C(Cn1cnc2cccc(-c3ccc(Cl)cc3)c2c1=O)N1CCCC1F` (centres unmarked) [Example 298, 5-(4-chlorophenyl)-3-(2-(2-fluoropyrrolidin-1-yl)-2-oxoethyl)quinazolin-4(3H)-one] as the compound, how does the “Response Recovered (%)” value read?
A: 9%

Q: Which “Response Recovered (%)” value does the source give for `O=C(Cn1ccc2cccc(-c3ccc(Cl)c(C(F)(F)F)c3)c2c1=O)N1CCCC1` [Example 300, 8-(4-chloro-3-(trifluoromethyl)phenyl)-2-(2-oxo-2-(pyrrolidin-1-yl)ethyl)isoquinolin-1(2H)-one] here?
A: 37%

Q: Which “Response Recovered (%)” value does the source give for `O=C(Cn1ccc2cccc(-c3ccc(Cl)c(C(F)(F)F)c3)c2c1=O)N1CC(F)(F)C1` [Example 301, 8-(4-chloro-3-(trifluoromethyl)phenyl)-2-(2-(3,3-difluoroazetidin-1-yl)-2-oxoethyl)isoquinolin-1(2H)-one] here?
A: 28%

Q: How did the “Response Recovered (%)” value turn out when `O=C(Cn1ccc2cccc(-c3ccc(F)c(Cl)c3)c2c1=O)N1CCC(F)C1` (centres unmarked) [Example 302, 8-(3-chloro-4-fluorophenyl)-2-(2-(3-fluoropyrrolidin-1-yl)-2-oxoethyl)isoquinolin-1(2H)-one] was run?
A: 40%

Q: `O=C(Cn1ccc2cccc(-c3ccc(F)c(Cl)c3)c2c1=O)N1CCCC1` [Example 303, 8-(3-chloro-4-fluorophenyl)-2-(2-oxo-2-(pyrrolidin-1-yl)ethyl)isoquinolin-1(2H)-one] was tested. Which “Response Recovered (%)” value did it give?
A: 46%

Q: For `O=C(Cn1ccc2cccc(-c3ccc(Cl)c(Cl)c3)c2c1=O)N1CCC(F)C1` (centres unmarked) [Example 304, 8-(3,4-dichlorophenyl)-2-(2-(3-fluoropyrrolidin-1-yl)-2-oxoethyl)isoquinolin-1(2H)-one], which “Response Recovered (%)” value is on record?
A: 60%

Q: For `O=C(Cn1ccc2cccc(-c3ccc(Cl)c(F)c3)c2c1=O)N1CC(F)(F)C1` [Example 305, 8-(4-chloro-3-fluorophenyl)-2-(2-(3,3-difluoroazetidin-1-yl)-2-oxoethyl)isoquinolin-1(2H)-one], which “Response Recovered (%)” value is on record?
A: 23%

Q: For `O=C(Cn1ccc2cccc(-c3ccc(Cl)c(F)c3)c2c1=O)N1CCC(F)C1` (centres unmarked) [Example 306, 8-(4-chloro-3-fluorophenyl)-2-(2-(3-fluoropyrrolidin-1-yl)-2-oxoethyl)isoquinolin-1(2H)-one], which “Response Recovered (%)” value is on record?
A: 25%

Q: Which “Response Recovered (%)” value does the source give for `O=C(Cn1ccc2cccc(-c3ccc(Cl)c(F)c3)c2c1=O)N1CCCC1` [Example 307, 8-(4-chloro-3-fluorophenyl)-2-(2-oxo-2-(pyrrolidin-1-yl)ethyl)isoquinolin-1(2H)-one] here?
A: 24%

Q: With `O=C(Cn1ccc2cccc(-c3ccc(Cl)c(Cl)c3)c2c1=O)N1CCCC1` [Example 308] as the compound, how does the “Response Recovered (%)” value read?
A: 78%

Q: Which “Response Recovered (%)” value does the source give for `O=C(Cn1ccc2cccc(-c3ccc(F)c(Cl)c3)c2c1=O)N1CC(F)(F)C1` [Example 309, 8-(3-chloro-4-fluorophenyl)-2-(2-(3,3-difluoroazetidin-1-yl)-2-oxoethyl)isoquinolin-1(2H)-one] here?
A: 41%

Q: With `O=C(Cn1ccc2ccc(-c3ccc(Cl)c(C(F)(F)F)c3)cc2c1=O)N1CCCC1` [Example 310, 7-(4-chloro-3-(trifluoromethyl)phenyl)-2-(2-oxo-2-(pyrrolidin-1-yl)ethyl)isoquinolin-1(2H)-one] as the compound, how does the “Response Recovered (%)” value read?
A: 3%

Q: Which “Response Recovered (%)” value does the source give for `O=C(Cn1ccc2ccc(-c3ccc(Cl)c(C(F)(F)F)c3)cc2c1=O)N1CCC(F)C1` (centres unmarked) [Example 311, 7-(4-chloro-3-(trifluoromethyl)phenyl)-2-(2-(3-fluoropyrrolidin-1-yl)-2-oxoethyl)isoquinolin-1(2H)-one] here?
A: 6%

Q: With `O=C(Cn1ccc2ccc(-c3ccc(Cl)c(C(F)(F)F)c3)cc2c1=O)N1CC(F)(F)C1` [Example 312, 7-(4-chloro-3-(trifluoromethyl)phenyl)-2-(2-(3,3-difluoroazetidin-1-yl)-2-oxoethyl)isoquinolin-1(2H)-one] as the compound, how does the “Response Recovered (%)” value read?
A: 3%

Q: `O=C(Cn1ccc2ccc(-c3ccc(F)c(C(F)(F)F)c3)cc2c1=O)N1CCC(F)C1` (centres unmarked) [Example 314, 7-(4-fluoro-3-(trifluoromethyl)phenyl)-2-(2-(3-fluoropyrrolidin-1-yl)-2-oxoethyl)isoquinolin-1(2H)-one] was tested. Which “Response Recovered (%)” value did it give?
A: 8%

Q: `O=C(Cn1ccc2ccc(-c3ccc(Cl)c(Cl)c3)cc2c1=O)N1CCC(F)C1` (centres unmarked) [Example 315, 7-(3,4-dichlorophenyl)-2-(2-(3-fluoropyrrolidin-1-yl)-2-oxoethyl)isoquinolin-1(2H)-one] was tested. Which “Response Recovered (%)” value did it give?
A: 2%

Q: For `O=C(Cn1ccc2ccc(-c3ccc(Cl)c(Cl)c3)cc2c1=O)N1CCCC1` [Example 316, 7-(3,4-dichlorophenyl)-2-(2-oxo-2-(pyrrolidin-1-yl)ethyl)isoquinolin-1(2H)-one], which “Response Recovered (%)” value is on record?
A: 2%

Q: With `O=C(Cn1cnc2[nH]nc(-c3ccc(Cl)c(C(F)(F)F)c3)c2c1=O)N1CCCC1` [Example 317, 3-(4-chloro-3-(trifluoromethyl)phenyl)-5-(2-oxo-2-(pyrrolidin-1-yl)ethyl)-1H-pyrazolo[3,4-d]pyrimidin-4(5H)-one] as the compound, how does the “Response Recovered (%)” value read?
A: 8%

Q: `O=C(Cn1cnc2[nH]nc(-c3ccc(Cl)c(C(F)(F)F)c3)c2c1=O)N1CCC(F)C1` (centres unmarked) [Example 318, 3-(4-chloro-3-(trifluoromethyl)phenyl)-5-(2-(3-fluoropyrrolidin-1-yl)-2-oxoethyl)-1H-pyrazolo[3,4-d]pyrimidin-4(5H)-one] was tested. Which “Response Recovered (%)” value did it give?
A: 26%

Q: Which “Response Recovered (%)” value does the source give for `O=C(Cn1cnc2[nH]nc(-c3ccc(Cl)c(F)c3)c2c1=O)N1CCCC1` [Example 319, 3-(4-chloro-3-fluorophenyl)-5-(2-oxo-2-(pyrrolidin-1-yl)ethyl)-1H-pyrazolo[3,4-d]pyrimidin-4(5H)-one] here?
A: 4%

Q: With `O=C(Cn1cnc2[nH]nc(-c3ccc(Cl)c(C(F)(F)F)c3)c2c1=O)N1CC(F)(F)C1` [Example 320, 3-(4-Chloro-3-trifluoromethyl-phenyl)-5-[2-(3,3-difluoro-azetidin-1-yl)-2-oxo-ethyl]-1,5-dihydro-pyrazolo[3,4-d]pyrimidin-4-one] as the compound, how does the “Response Recovered (%)” value read?
A: 9%

Q: How did the “Response Recovered (%)” value turn out when `O=C(Cn1ccn2ncc(-c3ccc(F)c(C(F)(F)F)c3)c2c1=O)N1CCC(F)C1` (centres unmarked) [Example 321, 3-(4-fluoro-3-(trifluoromethyl)phenyl)-5-(2-(3-fluoropyrrolidin-1-yl)-2-oxoethyl)pyrazolo[1,5-a]pyrazin-4(5H)-one] was run?
A: 46%

Q: For `O=C(Cn1ccn2ncc(-c3ccc(F)c(C(F)(F)F)c3)c2c1=O)N1CC(F)C1` [Example 322, 3-(4-fluoro-3-(trifluoromethyl)phenyl)-5-(2-(3-fluoroazetidin-1-yl)-2-oxoethyl)pyrazolo[1,5-a]pyrazin-4(5H)-one], which “Response Recovered (%)” value is on record?
A: 33%

Q: Which “Response Recovered (%)” value does the source give for `O=C(Cn1ccn2ncc(-c3ccc(F)c(C(F)(F)F)c3)c2c1=O)N1CCCC1` [Example 323, 3-(4-fluoro-3-(trifluoromethyl)phenyl)-5-(2-oxo-2-(pyrrolidin-1-yl)ethyl)pyrazolo[1,5-a]pyrazin-4(5H)-one] here?
A: 40%

Q: For `O=C(Cn1ccn2ncc(-c3ccc(F)c(C(F)(F)F)c3)c2c1=O)N1CC(F)(F)C1` [Example 324, 5-(2-(3,3-difluoroazetidin-1-yl)-2-oxoethyl)-3-(4-fluoro-3-(trifluoromethyl)phenyl)pyrazolo[1,5-a]pyrazin-4(5H)-one], which “Response Recovered (%)” value is on record?
A: 51%

Q: With `O=C(Cn1ccn2ncc(-c3ccc(Cl)c(Cl)c3)c2c1=O)N1CC(F)(F)C1` [Example 325, 3-(3,4-dichlorophenyl)-5-(2-(3,3-difluoroazetidin-1-yl)-2-oxoethyl)pyrazolo[1,5-a]pyrazin-4(5H)-one] as the compound, how does the “Response Recovered (%)” value read?
A: 50%

Q: `O=C(Cn1ccn2ncc(-c3ccc(Cl)c(Cl)c3)c2c1=O)N1CCCC1` [Example 326, 3-(3,4-dichlorophenyl)-5-(2-oxo-2-(pyrrolidin-1-yl)ethyl)pyrazolo[1,5-a]pyrazin-4(5H)-one] was tested. Which “Response Recovered (%)” value did it give?
A: 29%

Q: With `O=C(Cn1ccn2ncc(-c3ccc(Cl)c(Cl)c3)c2c1=O)N1CCC(F)C1` (centres unmarked) [Example 327, 3-(3,4-dichlorophenyl)-5-(2-(3-fluoropyrrolidin-1-yl)-2-oxoethyl)pyrazolo[1,5-a]pyrazin-4(5H)-one] as the compound, how does the “Response Recovered (%)” value read?
A: 54%

Q: For `O=C(Cn1ccn2ncc(-c3ccc(F)c(Cl)c3)c2c1=O)N1CC(F)(F)C1` [Example 328, 3-(3-chloro-4-fluorophenyl)-5-(2-(3,3-difluoroazetidin-1-yl)-2-oxoethyl)pyrazolo[1,5-a]pyrazin-4(5H)-one], which “Response Recovered (%)” value is on record?
A: 29%

Q: `CC1(F)CN(C(=O)Cn2ccn3ncc(-c4ccc(F)c(Cl)c4)c3c2=O)C1` [Example 329, 3-(3-chloro-4-fluorophenyl)-5-(2-(3-fluoro-3-methylazetidin-1-yl)-2-oxoethyl)pyrazolo[1,5-a]pyrazin-4(5H)-one] was tested. Which “Response Recovered (%)” value did it give?
A: 110%

Q: How did the “Response Recovered (%)” value turn out when `O=C(Cn1nnc2scc(-c3ccc(F)c(Cl)c3)c2c1=O)N1CCCC1` [Example 330, 5-(3-chloro-4-fluorophenyl)-3-(2-oxo-2-(pyrrolidin-1-yl)ethyl)thieno[2,3-d][1,2,3]triazin-4(3H)-one] was run?
A: 6%

Q: `O=C(Cn1nnc2scc(-c3ccc(Cl)c(C(F)(F)F)c3)c2c1=O)N1CCCC1` [Example 331, 5-[4-chloro-3-(trifluoromethyl)phenyl]-3-[2-oxo-2-(pyrrolidin-1-yl)ethyl]-3H,4H-thieno[2,3-d][1,2,3]triazin-4-one] was tested. Which “Response Recovered (%)” value did it give?
A: 8%

Q: Which “Response Recovered (%)” value does the source give for `O=C(Cn1nnc2scc(-c3ccc(Cl)c(C(F)(F)F)c3)c2c1=O)N1CCC(F)C1` (centres unmarked) [Example 332, 5-(4-chloro-3-(trifluoromethyl)phenyl)-3-(2-(3-fluoropyrrolidin-1-yl)-2-oxoethyl)thieno[2,3-d][1,2,3]triazin-4(3H)-one] here?
A: 20%

Q: `O=C(Cn1nnc2scc(-c3ccc(Cl)c(C(F)(F)F)c3)c2c1=O)N1CC(F)(F)C1` [Example 333, 5-(4-chloro-3-(trifluoromethyl)phenyl)-3-(2-(3,3-difluoroazetidin-1-yl)-2-oxoethyl)thieno[2,3-d][1,2,3]triazin-4(3H)-one] was tested. Which “Response Recovered (%)” value did it give?
A: 13%
